The values that follow come from patent US11452705B2, “Oral drug delivery composition containing oxaliplatin and method for preparing same” (ICURE BNP CO., LTD., priority 2017, dated 2022).

Data set [1] can be described thus: In vivo oral absorption in rats, plasma OXA (Pt by AAS). The settings on record: rat. The method, then:
(§1) After oral and intravenous administration, 200 μL of blood was collected from a capillary in the retro-orbital plexus at different time intervals and directly mixed with 50 μL of sodium citrate (3.8% solution). Blood samples were then immediately centrifuged (2,500×g, 15 minutes, 4° C.). The plasma samples were isolated and kept frozen at −70° C. until analysis.
Before analysis, the sample was diluted with 10 mL of 3% nitric acid solution and then injected into the furnace for AAS analysis. All measurements were carried out using a Thermo Scientific iCE 3500 AAS (Thermo Fisher Scientific) equipped with a GFS35 graphite furnace and a GFS35Z autosampler. Argon was used as the purging gas at 200 mL/min, and the injection volume of the sample was 20 μL. The spectrometer was provided with a Zeeman-based background corrector, and the […].

Data set [2] in a line: Artificial intestinal membrane permeability (PAMPA). It is filed as in vitro ADME. The settings on record: aqueous solution (control), PBS pH 6.8, 5 hours, room temperature. The protocol:
Then, 200 μL was added to the donor of each well of the PAMPA plate, and 300 μL of buffer (PBS, pH 6.8) was added to each well of the receptor plate. The plate assembly was set by coupling the donor plate with the receiver plate. After 5 hours at room temperature, samples were withdrawn from donors and receptors in each well of the PAMPA plate, and the concentration was measured as follows.
The mobile phase consisted of water (pH 3.0 adjusted with phosphoric acid)-acetonitrile (99:1, v/v) and was run at a flow rate of 0.8 mL/min.
For 5-FU, injected into an HPLC system equipped with a C18 column (4.6×250 mm, 5 μm, 100 Δ; 20 μL injection), and were chromatographed using an isocratic mobile phase of deionized water (pH 3.2 adjusted with phosphoric acid) at a flow rate of 0.8 mL/min. The UV detection was carried out at 260 nm.
Effective permeability (Pe) of each drug was calculated using the following formula. Pe=−ln[1−CA(t)/Cequilibrium]/[A(1/VD+1/VA)×t]
(Pe: permeability (cm/s); A: Effective filter area (f×0.3 cm^2; f: Porosity of the filter (f=0.76)); VD: volume of the donor well (0.2 mL); VA: volume of Receptor well (0.3 mL); t: the total time of incubation in seconds (s); CA(t): concentration of drug in the receptor well at time t; Cequilibrium: [CD(t)×VD+CA(t)×VA]/(VD+VA); CD(t): concentration of residual drug in donor at time t)
In general terms: PAMPA measures passive passage across an artificial lipid membrane.

A short description of data set [3]: In vivo oral absorption in rats, plasma 5-FU (HPLC). The settings on record: rat. The method, then: as §1
To determine the plasma concentration of 5-FU, 100 μL of each standard and plasma samples were diluted with 50 μL of 20 μg/mL internal standard (IS, chlorouracil) and 100 μL of saturated ammonium sulfate solution. After vortexing for 1 min, the diluted plasma sample was extracted with a 2-mL solvent mixture of propanol and diethylether (80:20, v/v). The mixture was then centrifuged at 2,500×g for 10 min and the collected organic phase was evaporated under nitrogen at 37° C. The dried residues were reconstituted with 100 μL of mobile phase for HPLC analysis (ammonium phosphate buffer with pH 6.8/methanol, 98:2, v/v), followed by vortexing, and then determined by HPLC with a C8 column (4.6×250 mm, 5 μm) at a flow rate of 1 mL/min mobile phase. A 50-μL sample was injected and 5-FU was measured at 260 nm.

Data set [4] has as its system CT26 mouse colon tumor cells. Nature of the data set: In vivo tumor growth inhibition, CT26 tumor-bearing mice. Also on record: species or system BALB/c mice. The protocol:
The CT26 mouse colon tumor cells were subcutaneously grafted into the flanks of BALB/c mice at a concentration of 1×10^6 cells/100 μL of PBS (pH 7.4). […] During 18-day treatment, mice were fasted for 4 h before oral administration and 2 h after administration. Tumors were measured every three days in two dimensions using a caliper, and tumor volumes were calculated as a^2×b×0.52, where a=width and b=length. Body weight was also measured.
At 18 days after administration, the isolated tumors masses were measured, and tumor tissues were fixed in 10% formalin for histological evaluation. Staining with proliferating cell nuclear antigen (PCNA) for cell proliferation and fluorescent terminal deoxynucleotidyl transferase-mediated dUPT nick end labeling (TUNEL) for apoptosis were carried out.

Data set [5] in a line: Drug release (dissolution) test, USP type 1 apparatus (basket). The data set is classed as physicochemical. The settings on record: pH 1.2, within 15 min. The protocol:
Dissolution tests were performed in 500 mL of medium containint 0.1 N HCl solution (pH 1.2) or phosphate buffer (pH 6.8) at 37±0.2° C., using the USP type 1 apparatus (basket) rotating at 100 rpm.
Each capsule was subjected to a dissolution test, and 1-mL samples were withdrawn at 15, 30, 45, 60, 90, and 120 min. After filtration, the amount of drug released was quantified by the HPLC using a UV detector, as in Example 7, and the results are shown in FIG. 6.

Data set [6] is described as follows: In vitro intestinal cell membrane permeability across Caco-2 cell monolayer. The data set is classed as in vitro ADME. The conditions noted are these: human, Solution in HBSS (control), apical to basolateral, 37° C., read-out: Apparent permeability (Papp). Background: Caco-2 cells form a polarised layer with tight junctions and transporters.
Method: Caco-2 cells were seeded onto each well of 12-well Transwell® filter insert (pore size: 0.4 μm, surface area: 1.12 cm^2; Corning, N.Y., USA) at a density of 3×10^5 cells/well. Dulbecco's modified Eagle's medium (DMEM; Lonza, Basel, Switzerland) medium containing 10% fetal bovine serum (FBS; Gibco, Thermo Fisher Scientific) and 1% penicillin/streptomycin (Gibco) was changed every 48 hours for 21 to 29 days, and Caco-2 cell monolayers with a transepithelial electrical resistance (TEER) of >350 Ω·cm^2 were used for in vitro intestinal membrane permeability experiments.
First, the culture medium was removed and the monolayer was pre-incubated with 0.5 mL of Hanks' balanced salt solution (HBSS) for 20 min at 37° C. […] After processing the sample, 100-μL samples were taken from the basolateral compartment at 0.5, 1, 2, 3, 4, and 5 h. The samples were filtered through a membrane filter.

One may read the Cmax as the peak of the concentration-time curve. As a reminder, the Tmax is the time from dosing to the highest level. For orientation: half-life means the time needed for the level to fall by half in the phase considered.

SMILES strings stand for the structures.

In data set [1] (intravenous, OXA 5 mg/kg), `O=C([O-])C(=O)[O-].[NH-][C@@H]1CCCC[C@H]1[NH-].[Pt+4]` (relative stereo) [OXA, cis-[(1R,2R)-1,2-cyclohexanediamine-N,N′][oxalato(2-)-O,O′]platinum] had an AUCinf of 2537 ± 1312 ng·h/mL, an AUClast of 1962 ± 746 ng·h/mL, a Cmax of 2454 ± 990 ng/mL and a T1/2 of 186.2 ± 126.8 min. Also, the Bioavailability in data set [1] (intravenous, OXA 5 mg/kg (reference)) is reported as 100%. In data set [1] (oral, OXA 10 mg/kg), this compound returned an AUCinf of 170 ± 61 ng·h/mL, an AUClast of 111 ± 95 ng·h/mL, a Bioavailability of 2.824 ± 2.428% and a Cmax of 32 ± 14 ng/mL. Besides, in data set [1] (oral, OXA 10 mg/kg), the T1/2 came to 91.68 ± 54 min and the Tmax is 110 ± 17.3 min. Further, in data set [2], the “Effective permeability (Pe)” value was 0.54±0.12 ×10^−6 cm/s.

In turn, `O=c1[nH]cc(F)c(=O)[nH]1` [Composition 5-FU, 5-fluorouracil] had a half-life in data set [3] (plasma, oral, 5-FU 20 mg/kg) of 48.8 ± 34 min. In data set [3] (intravenous, 5-FU 5 mg/kg), the AUCinf was found to be 670 ± 221 ng·h/mL, the AUClast worked out at 657 ± 220 ng·h/mL, the Cmax was 716 ± 124 ng/mL and the T1/2 came to 45.6 ± 6.54 min. Moreover, the Bioavailability in data set [3] (intravenous, 5-FU 5 mg/kg (reference)) is given as 100%. In addition, in data set [3] (oral, 5-FU 20 mg/kg), the AUCinf was 287 ± 96 ng·h/mL, the AUClast was found to be 242 ± 58 ng·h/mL, the Bioavailability came out at 9.218 ± 2.198% and the peak concentration (Cmax) was determined as 92 ± 8 ng/mL. Moreover, the Tmax in data set [3] (oral, 5-FU 20 mg/kg) was found to be 30 ± 0 min. Also, the “Effect of inhibiting tumor growth compared with the group administered orally with the OXA/DCK aqueous solution” value in data set [4] (once daily oral 10 mg/kg 5-FU in water) is recorded as “did not show a significant difference”. Further, the “Inhibition of tumor growth (tumor volume) compared to the control” value in data set [4] (once daily oral, 18-day treatment, 10 mg/kg OXA and/or 10 mg/kg 5-FU) is on record as 57.9%. Besides, the “Drug released from the nanoemulsions” value in data set [5] was “at least 85%”. In addition, in data set [6], the Papp A→B at 5 h, 384.4 μM amounted to 3.46 ± 1.22 ×10⁻⁶ cm/s. In addition, the “Effective permeability (Pe)” value in data set [2] is on record as 1.27±0.46 ×10^−6 cm/s.
